Entries after “also recorded” stand apart in the source; their conditions may differ. Read-outs that look alike come from different tables or passages of the source.
Tests used:
[1] = test system: Neuro2a cells transfected with the TDP-43 gene; assay: Inhibition of cell death in neuronally differentiated Neuro2a cells transfected with the TDP-43 gene (Example 1); format: cell-based, Mouse; conditions: evaluated 7 days after transfection; for EC50: Mus musculus, N2a, compound added 5 hours after transfection, 10-10,000 nmol/L, relative viability, read-out: EC50 (inhibition of cell death in nerve cells forcibly expressing TDP-43); for inhibition of cell death: cells transfected with the TDP-43 gene, Figures 3C and 4
Method: (§1) Mouse neuroblastoma (Neuro2a) cells were seeded on a dish. The Neuro2a cells were cultured in a culture medium containing DMEM+10% FBS at 37°C in the presence of 5% CO2. On the first day after seeding, differentiation into neurons was initiated. Differentiation into neurons was performed in a culture medium containing DMEM+2% FBS+20 µmol/L retinoic acid. On the fourth day after seeding, cells were transfected with synthesized TDP-43 mRNA by a lipofection method. Cells were sampled at 6 hours, 9 hours, 12 hours, 15 hours, 18 hours, and 21 hours after transfection. […] For sampling, cells were lysed in an RIPA buffer and centrifuged at 22,000 Xg for 30 minutes at 4°C, the supernatant was used as the soluble fraction, the precipitate was used as the insoluble fraction, and equal volumes of a 2×SDS sample buffer were added to the respective fractions and heated at 95°C for 5 minutes to prepare electrophoresis samples. The electrophoresis samples were subjected to electrophoresis using a polyacrylamide gel, TDP-43 was then transferred to a PVDF membrane. TDP-43 was detected through chemiluminescence using anti-TDP-43 antibodies as primary antibodies and HRP-conjugated anti-rabbit antibodies as secondary antibodies. […] The insoluble fractions of TDP-43 indicate the aggregation of TDP-43.
Neuro2a cells were seeded on a dish. On the first day after seeding, differentiation into neurons was initiated. On the fourth day after seeding, cells were transfected with the TDP-43 gene. […] In addition, as a control, 10 nmol/L, 50 nmol/L, 100 nmol/L, 500 nmol/L, 1,000 nmol/L, 5,000 nmol/L, or 10,000 nmol/L of ropinirole was added to a culture medium.
The proportion of dead cells was evaluated 7 days after the cells were transfected with the TDP-43 gene.

[2] = test system: TDP-43 in motor neurons derived from iPS cells of healthy subjects; assay: Soluble and insoluble fractions of TDP-43 in motor neurons derived from iPS cells of healthy subjects, Western blot (Example 3); format: cell-based, human; conditions: 10 µmol/L, cultured for 20 days, Figure 7
[3] = test system: TDP-43 in motor neurons derived from iPS cells of ALS patients; assay: Soluble and insoluble fractions of TDP-43 in motor neurons derived from iPS cells of ALS patients, Western blot (Example 3); format: cell-based, human; conditions: 10 µmol/L, cultured for 20 days; for bands for soluble and insoluble fractions of TDP-43: Figure 7; for average proportion of insoluble fractions of TDP-43: three experiments, DMSO control about 46.1%, Figure 8
[4] = cited from earlier work
TDP-43 = assay: Soluble and insoluble fractions of TDP-43 in TDP-43-transfected Neuro2a cells, Western blot (Example 2); format: cell-based, Mouse; conditions: 10 µmol/L added 6 hours after transfection, cultured for 12 hours; for soluble fractions versus insoluble fractions of TDP-43 in the cells: Figure 5; for proportion of insoluble fractions based on a total number of soluble fractions and insoluble fractions of TDP-43: Figure 6
Method: as §1
Neuro2a cells were seeded on a dish. On the first day after seeding, differentiation into neurons was initiated. On the fourth day after seeding, cells were transfected with the TDP-43 gene.

[5] = Reported pharmacokinetics of D-cycloserine after oral administration to humans; format: in vivo; conditions: estimated; 15 mg orally administered twice daily
[6] = cited from earlier work; remark: listed apart in the source

SMILES: CCCN(CCC)CCc1cccc2c1CC(=O)N2 [ropinirole]
- EC50 [1]: 198 nM
- bands for soluble and insoluble fractions of TDP-43 [2]: bands for soluble fractions of TDP-43 were clearly observed, and bands for insoluble fractions were unclear
- bands for soluble and insoluble fractions of TDP-43 [3]: bands for soluble fractions of TDP-43 were clearly observed, and bands for insoluble fractions were unclear
- average proportion of insoluble fractions of TDP-43 [3]: about 19.3%

SMILES: CC(=O)NCCCS(=O)(=O)O [acamprosate, 3-(acetylamino)propylsulfonic acid]
- side effects ([4]; administered to humans, dose not stated): anaphylaxis associated with symptoms such as generalized skin rash, rash, urticaria, stomatitis, laryngospasm, and shortness of breath; also recorded: angioedema associated with symptoms such as tongue swelling and lymphadenopathy

SMILES: N[C@H]1CONC1=O [L-cycloserine, (4S)-4-amino-1,2-oxazolidin-3-one]
- EC50 [1]: 237 nM
- inhibition of cell death [1]: exhibited an effect of inhibiting cell death in a concentration-dependent manner
- soluble fractions versus insoluble fractions of TDP-43 in the cells (TDP-43): the number of soluble fractions of TDP-43 was larger than the number of insoluble fractions of TDP-43
- proportion of insoluble fractions based on a total number of soluble fractions and insoluble fractions of TDP-43 (TDP-43): less than half

SMILES: N[C@@H]1CONC1=O [D-cycloserine, (4R)-4-Amino-1,2-oxazolidin-3-one]
- trough value [5]: > 128 nmol/L
- EC50 [1]: 128 nM
- inhibition of cell death [1]: cell death was inhibited; also recorded: exhibited an effect of inhibiting cell death in a concentration-dependent manner
- Cmax ([6]; 15 mg orally administered to humans, read-out: maximum blood concentration (Cmax)): ~5.6 µM
- half-life ([6]; reported): about 10 hours
- soluble fractions versus insoluble fractions of TDP-43 in the cells (TDP-43): the number of soluble fractions of TDP-43 was larger than the number of insoluble fractions of TDP-43
- proportion of insoluble fractions based on a total number of soluble fractions and insoluble fractions of TDP-43 (TDP-43): less than half
- bands for soluble and insoluble fractions of TDP-43 [2]: bands for soluble fractions of TDP-43 were clearly observed, and bands for insoluble fractions were unclear
- bands for soluble and insoluble fractions of TDP-43 [3]: bands for soluble fractions of TDP-43 were clearly observed, and bands for insoluble fractions were unclear
- average proportion of insoluble fractions of TDP-43 [3]: about 17.4%
- side effects ([4]; 150 mg administered to humans): causes headaches
- side effects ([4]; 250 mg administered to humans in order to treat tuberculosis): serious side effects such as epileptiform seizure and mental confusion

Reference: patent EP4702978A1, “AGENT FOR TREATING OR PREVENTING AMYOTROPHIC LATERAL SCLEROSIS” (Socium Inc., priority 2023, dated 2024)
